Test results taken from article PMC12491715 (Acta Pharmaceutica Sinica. B, 2025).
“And” between values parts separate entries of the source, which are not always exact repeats. Equal entries are not always repeated. Where two headings read alike, the source gives them in different places.

Experiments:
[1] = tested on: caspase-3 activity in SH-SY5Y cells; assay: Caspase-3 activity in lysates of Aβ1–42-treated cells; format: cell-based, human; details: 5 μmol/L compound, 5 μmol/L fibrillar Aβ1–42, 24 h
Protocol: (§1) Cell culture and treatments The human neuroblastoma SH-SY5Y cell line was purchased from American Type Culture Collection (Manassas, VA, USA). Cells were cultured in Advanced Dulbecco’s modified Eagle’s medium (Gibco, Thermo Fisher Scientific, Waltham, MA, USA) supplemented with 10% fetal bovine serum (FBS, Gibco), 2 mmol/L L-glutamine, 50 U/mL penicillin and 50 μg/mL streptomycin (Sigma, St. Louis, MO, USA) in a humidified atmosphere of 95% air and 5% CO2 at 37 °C, and grown to 80% confluence. Prior to cell treatment, complete medium was replaced with serum-reduced medium (i.e., with 2% FBS). Compounds were prepared as a stock solution of 50 mmol/L in DMSO.
Caspase-3 activity and Western blot analysis The activity of caspases-3 was determined in total cell lysates of the SH-SY5Y cells treated as described. […] Following cell treatment for 24 h, cell lysates were prepared, and the caspase-3 activity was assessed using the fluorescent peptide substrate N-acetyl-L-α-aspartyl-L-α-glutamyl-L-valyl-N-[2-oxo-4-(trifluoromethyl)-2H-1-benzopyran-7-yl]-L-α-asparagine (Ac-DEVD-AFC; Bachem). […] Immediately after the addition of the substrate, fluorescence was monitored continuously for 30 min at an excitation wavelength of 405 nm and an emission wavelength of 535 nm using a Tecan Safire[2] fluorescence microplate reader. […]

BChE = molecular target: T1, BChE (Mus musculus, UniProt Q03311); assay: Cholinesterase inhibition upon repeated dosing, serum BChE; format: in vivo, C57BL/6JRccHsd mice; details: for remaining activity at 1 mg/kg / remaining activity at 5 mg/kg: mouse, po
T1 construct: from tissue; host or cells: mouse serum (C57BL/6JRccHsd)
T1 sequence (Q03311 30-603): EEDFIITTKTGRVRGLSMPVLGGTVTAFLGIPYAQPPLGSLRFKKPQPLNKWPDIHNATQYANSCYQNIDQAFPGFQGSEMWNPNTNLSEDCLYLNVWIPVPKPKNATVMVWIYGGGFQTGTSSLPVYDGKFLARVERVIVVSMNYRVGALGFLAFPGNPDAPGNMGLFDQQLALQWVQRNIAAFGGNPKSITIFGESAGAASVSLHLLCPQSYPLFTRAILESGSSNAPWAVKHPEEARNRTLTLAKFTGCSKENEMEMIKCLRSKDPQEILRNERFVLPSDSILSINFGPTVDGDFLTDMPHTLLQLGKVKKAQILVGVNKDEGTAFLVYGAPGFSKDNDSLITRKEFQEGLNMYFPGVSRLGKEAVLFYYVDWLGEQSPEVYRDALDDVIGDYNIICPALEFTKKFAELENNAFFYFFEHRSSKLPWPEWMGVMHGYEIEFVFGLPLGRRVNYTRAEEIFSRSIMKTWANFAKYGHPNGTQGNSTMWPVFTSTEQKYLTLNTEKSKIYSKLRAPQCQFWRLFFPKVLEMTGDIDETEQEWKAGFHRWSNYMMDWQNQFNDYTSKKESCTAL
Text: The 12 mice used in this pilot study were 9–14 months old male wild-type C57BL/6JRccHsd mice bred in the Laboratory of Animal Genomics at the Faculty of Veterinary Medicine, University of Ljubljana, or purchased from Envigo RMS Holding Corp. Mice were conventionally bred in open polycarbonate cages (Tecniplast, Buguggiate, Italy) and provided with wood chip bedding (Lignocel®, Rettenmaier and Sons, Germany). Mice were kept under standard conditions, including a 12:12 dark–light cycle (LED, CCT 3000 k, with no more than 25 lux above the cage), a temperature range of 21–24 °C, and humidity between 50%–60%. They were fed irradiated rodent diet (Teklad global 16% protein rodent diet®, BN 2916, Envigo, Udine, Italy) and had access to drinkable tap water ad libitum. Due to the nature of this pilot study, the mice were housed individually. The experimental design was evaluated by the National Ethics Committee for Animal Experiments and approved by the Veterinary Administration of the Republic of Slovenia (document no. U34401-10/2021/8, with amendments U34401-10/2021/13 and U34401-10/2021/1).
Before the start of study, blood was drawn from the submandibular vein (facial vein) of the animals under isoflurane inhalation anesthesia (Isoflurin®, VetPharma, Spain) using a 5 mm lancet (Goldenrod Animal Sterile, MEDIpoint, Inc., NY, USA), collected in a microtube (Eppendorf, Safe-Lock tube, 0.5 mL, Eppendorf AG, Germany) and allowed to clot. After approximately 1 h, the blood was centrifuged at 6000 × g for 15 min at 4 °C to obtain the sera, which were stored at –80 °C until analysis.
Seven animals received the 1 mg/kg dose of compound 8, and five animals received the 5 mg/kg dose of compound 8. Compound 8 was prepared as a stock solution in 100% MeCN (5 and 10 mg/mL) and kept refrigerated for the duration of the study. The dosages were prepared as follows: based on the animal’s body weight, a calculated volume of compound 8 stock solution was accurately pipetted onto a cubic piece (approx. 50 mg) of sterilized toast (Ölz multigrain toast, Rudolf Ölz Meisterbäcker GmbH & Co KG, Austria), and left to dry at room temperature for 5 min. Subsequently, 25 μL of 50% sucrose in distilled water were added at the same site to mask the bitter taste of compound 8. These dosage units were prepared twice a week during the study and stored in a closed glass petri dish at room temperature until use. […] Compound 8 was administered in this way for 27 days, eliminating the need for repeated handling and injection. The animals were observed daily for general activity level, hair coat quality or other abnormal behavior or clinical signs.
24 h after the last dose was administered, the mice were humanly euthanized under isoflurane inhalation anesthesia (Isoflurin®, VetPharma, Spain) and the blood was withdrawn from the left ventricle using a syringe, collected in a microtube (Eppendorf, Safe-Lock tube, 0.5 mL, Eppendorf AG, Germany) and allowed to clot. After approximately 1 h, the blood was centrifuged at 6000 × g for 15 min at 4 °C to obtain the sera, which were stored at –80 °C until analysis. […] Animal sera (5–10 μL) were diluted in 0.5 mmol/L DTNB in 0.1 mol/L sodium phosphate buffer pH 7.4 (total volume 1000 μL), substrate (5 μL of 100 mmol/L, final concentration 0.5 mmol/L) was added, and the increase in absorbance monitored for 3 min. BChE activity was determined using butyrylthiocholine iodide, while AChE activity was determined on isoOMPA-inhibited sera (buffer-diluted sera were preincubated for 25 min with 1 μL of 100 mmol/L isoOMPA–0.1 mmol/L final concentration) using acetylthiocholine iodide (final concentration 0.5 mmol/L). Measurements were performed in triplicate and pairwise compared before and after treatment for each subject (n = 5 per group).

[2] = MTS assay, metabolic activity; format: cell-based; details: human, SH-SY5Y neuroblastoma cells, read-out: cytotoxic EC50
Protocol: as §1
MTS assay SH-SY5Y cells were seeded in 96-well plates (10^4/well) and assessed by MTS ([3-(4,5-dimethylthiazol-2-yl)-5-(3-carboxymethoxyphenyl)-2-(4-sulfophenyl)-2H-tetrazolium, inner salt) assay for their response to compounds. Cells were treated with increasing concentrations of compounds (0.1–10 μmol/L for 5, 1–100 μmol/L for 6–8) in a serum-reduced medium, and metabolic activity was assessed after 24 h (5) or 48 h (6–8) using the CellTiter 96® Aqueous One Solution Cell Proliferation Assay (Promega, Madison, WI, USA), in accordance with the manufacturer’s instructions. Absorbance was measured with an automatic microplate reader (Tecan Safire^2, Switzerland) at 492 nm. Results are presented as a percentage of the control (DMSO).

With `CCN(CC)C(=O)n1cnc(C2(CC)Cc3ccccc3C2)c1` [Compound 8, N,N-Diethyl-4-(2-ethylindan-2-yl)-1H-imidazole-1-carboxamide] the “caspase-3 activity after Aβ1–42 treatment” value [1] was “significant reduction”, the “BChE residual activity, AVERAGE” value (BChE; 1 mg/kg p.o. once a day for 4 weeks, compared to before treatment, 1 mg/kg) was 21%±6% and the “BChE activity AFTER treatment” value (BChE; 1 mg/kg p.o. once a day, individual animals, 1 mg/kg) was 0.2139±0.0118 U/mL and 0.1602±0.0041 U/mL and 0.1484±0.0071 U/mL and 0.2261±0.0071 U/mL and 0.2214±0.0082 U/mL. The BChE residual activity (BChE; 1 mg/kg p.o. once a day, individual animals, after vs before treatment, 1 mg/kg) was 27.0%±4.2% and 15.9%±1.1% and 19.4%±1.8% and 20.1%±2.4%, the “BChE residual activity, AVERAGE” value (BChE; 5 mg/kg p.o. once a day for 4 weeks, compared to before treatment, 5 mg/kg) was 10%±5% and the “BChE activity AFTER treatment” value (BChE; 5 mg/kg p.o. once a day, individual animals, 5 mg/kg) was 0.1060±0.0071 U/mL and 0.0989±0.0071 U/mL and 0.0801±0.0268 U/mL and 0.0683±0.0108 U/mL and 0.0919±0.0000 U/mL. The BChE residual activity (BChE; 5 mg/kg p.o. once a day, individual animals, after vs before treatment, 5 mg/kg) was 10.6%±1.7% and 6.9%±2.9% and 12.1%±2.7% and 10.8%±2.1%, the remaining activity at 1 mg/kg (BChE; 1 mg/kg p.o. once a day for 4 weeks, compared to before treatment, read-out: BChE residual activity, AVERAGE) was 20.6% and the remaining activity at 1 mg/kg (BChE; 1 mg/kg p.o. once a day, individual animals, after vs before treatment, read-out: BChE residual activity) was 20.3%. It also gave a remaining activity at 5 mg/kg (BChE; 5 mg/kg p.o. once a day for 4 weeks, compared to before treatment, read-out: BChE residual activity, AVERAGE) of 10.1%, a remaining activity at 5 mg/kg (BChE; 5 mg/kg p.o. once a day, individual animals, after vs before treatment, read-out: BChE residual activity) of 10.1% and an EC50 at 48 h [2] of over 100 µM.
